Structures are written as SMILES. Starred links: 1 amine or outer side, 2 acyl side, 3 side chain; linkers in the order of their positions; H or OH if unused. Positions of bridges follow the written chain, without caps; N, C: chain ends. Non-standard residues stand in square brackets, D forms with d. Residues, ends and D or L forms follow the SMILES beside them. *: point of attachment. X14 = O=C([C@H](CCc1ccccc1Cl)N[*:1])[*:2]; hNle(7,7-F2) = N[C@@H](CCCCC(F)F)C(=O)O; NMeF = CN[C@@H](Cc1ccccc1)C(=O)O; NMeGABA = CN(CCCC(=O)[*:2])[*:1]; NMeI = CC[C@H](C)[C@H](NC)C(=O)O; NMeL = CN[C@@H](CC(C)C)C(=O)O; NMeV = CN[C@H](C(=O)O)C(C)C; NMeA = CN[C@@H](C)C(=O)O; Piperidide = C1CCN(*)CC1; Isopentyl = CC(C)CC*; NPrGly = CCCNCC(=O)O; X11 = FC(F)C(F)(F)C*; X2 = Fc1cncc(C*)c1; Sar = CNCC(=O)O; tBu = CC(C)(C)*

This series is described as follows: Caco-2 membrane permeability, improved method as used in the following Examples (96-well, 20 to 24 h preincubation). It is filed as in vitro ADME. As to conditions: human, Caco-2, Caco-2. In short, it runs like this: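 Caco-2 monolayers were grown three weeks and preincubated 20–24 h at 37 °C with compound in DMEM+FaSSIF (1% DMSO) apically. The assay then used compound in FaSSIF/HBSS (1% DMSO, pH 6.0) apically and HBSS with 4% BSA (pH 7.4) basally. Basal samples were taken at 180 min for LC/MS, and Papp (cm/sec) was calculated.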
Molecule `CC(C)C[C@H]1C(=O)N[C@@H](COC(C)(C)C)C(=O)N(C)[C@@H](Cc2ccccc2)C(=O)N(C)[C@@H](C(C)C)C(=O)N[C@H](C(=O)N2CCCCC2)CC(=O)N[C@H](C(C)C)C(=O)N(C)[C@@H](Cc2ccccc2)C(=O)N[C@@H](CCCCC(F)F)C(=O)N(C)[C@@H](CC(C)C)C(=O)N[C@@H]([C@@H](C)O)C(=O)N(C)CC(=O)N1C` [pd331] ([dV][NMeF][hNle(7,7-F2)][NMeL]T[Sar][NMeL]S(tBu)[NMeF][NMeV]D-Piperidide; lactam N-11) registered a Papp A→B at 180 min of 2.1 ×10⁻⁶ cm/s.

`CC(C)C[C@@H]1NC(=O)[C@H](Cc2ccccc2)N(C)C(=O)[C@@H](C(C)C)NC(=O)C[C@@H](C(=O)N2CCCCC2)NC(=O)[C@H](C(C)C)N(C)C(=O)[C@H](Cc2ccccc2)N(C)C(=O)[C@H](CCCCC(F)F)NC(=O)[C@H](CC(C)C)N(C)C(=O)CN(C)C(=O)[C@H]([C@@H](C)O)NC(=O)[C@H](CC(C)C)N(C)C1=O` [pd332] ([dV][NMeF]L[NMeL]T[Sar][NMeL][hNle(7,7-F2)][NMeF][NMeV]D-Piperidide; lactam N-11) displayed an apparent permeability from apical to basolateral (Papp A→B) at 180 min of 1.5 ×10⁻⁶ cm/s.

`CC[C@H](C)[C@@H]1NC(=O)[C@H](CC(C)C)N(C)C(=O)CCCN(C)C(=O)C[C@@H](C(=O)N2CCCCC2)NC(=O)[C@H](CC(C)C)N(C)C(=O)[C@H](C)N(C)C(=O)[C@H]([C@@H](C)O)NC(=O)[C@H](CC(C)C)N(C)C(=O)[C@H](CCCCC(F)F)NC(=O)[C@H](Cc2ccccc2)N(C)C(=O)[C@H](Cc2ccccc2)N(C)C1=O` [pd333] ([NMeGABA][NMeL]I[NMeF][NMeF][hNle(7,7-F2)][NMeL]T[NMeA][NMeL]D-Piperidide; lactam N-11) yielded an apical-to-basolateral permeability (Papp A→B) at 180 min of 1.3 ×10⁻⁶ cm/s.

On to `CC[C@H](C)[C@H]1C(=O)N[C@@H]([C@@H](C)O)C(=O)N(C)CC(=O)N(C)[C@@H](CC(C)C)C(=O)N[C@H](C(=O)N2CCCCC2)CC(=O)N(C)[C@@H](C)C(=O)N[C@@H](CCCCC(F)F)C(=O)N(C)[C@@H](CC(C)C)C(=O)N(C)[C@@H](Cc2ccccc2)C(=O)N[C@@H](C(C)C)C(=O)N(C)[C@@H](Cc2ccccc2)C(=O)N1C` [pd334] ([NMeA][hNle(7,7-F2)][NMeL][NMeF]V[NMeF][NMeI]T[Sar][NMeL]D-Piperidide; lactam N-11), for which the apical-to-basolateral permeability (Papp A→B) at 180 min came to 2.4 ×10⁻⁶ cm/s.

In the case of `CC[C@H](C)[C@H]1C(=O)N[C@@H]([C@@H](C)O)C(=O)N(C)CC(=O)N(C)[C@@H](CC(C)C)C(=O)N[C@H](C(=O)N2CCCCC2)CC(=O)N(C)[C@@H](C)C(=O)N[C@@H](CC(C)C)C(=O)N(C)[C@@H](CC(C)C)C(=O)N(C)[C@@H](Cc2ccccc2)C(=O)N[C@@H](CCCCC(F)F)C(=O)N(C)[C@@H](Cc2ccccc2)C(=O)N1C` [pd335] ([NMeA]L[NMeL][NMeF][hNle(7,7-F2)][NMeF][NMeI]T[Sar][NMeL]D-Piperidide; lactam N-11), the apical-to-basolateral permeability (Papp A→B) at 180 min was 2 ×10⁻⁶ cm/s.

Molecule `CCCN1CC(=O)N(C)[C@@H](Cc2ccccc2)C(=O)N[C@@H](CCCCC(F)F)C(=O)N(C)[C@@H](CC(C)C)C(=O)N[C@@H]([C@@H](C)O)C(=O)N(C)CC(=O)N(C)[C@@H](Cc2ccccc2)C(=O)N(C)[C@@H](CC(C)C)C(=O)N[C@@H](COC(C)(C)C)C(=O)N(C)[C@@H](C(C)C)C(=O)N[C@H](C(=O)N2CCCCC2)CC1=O` [pd336] ([NPrGly][NMeF][hNle(7,7-F2)][NMeL]T[Sar][NMeF][NMeL]S(tBu)[NMeV]D-Piperidide; lactam N-11) had a Papp A→B at 180 min of 2.5 ×10⁻⁶ cm/s.

For `CC(C)CCOC[C@@H]1NC(=O)[C@H](CC(C)C)N(C)C(=O)[C@H](Cc2ccccc2)N(C)C(=O)CN(C)C(=O)[C@H]([C@@H](C)O)NC(=O)[C@H](CC(C)C)N(C)C(=O)[C@H](CCCCC(F)F)NC(=O)[C@H](Cc2ccccc2)N(C)C(=O)CN(C)C(=O)C[C@@H](C(=O)N2CCCCC2)NC(=O)[C@H](CC(C)C)N(C)C1=O` [pd338] ([Sar][NMeF][hNle(7,7-F2)][NMeL]T[Sar][NMeF][NMeL]S(Isopentyl)[NMeL]D-Piperidide; lactam N-11), the apical-to-basolateral permeability (Papp A→B) at 180 min worked out at 1.8 ×10⁻⁶ cm/s.

On to `CC(C)C[C@H]1C(=O)N[C@@H](COC(C)(C)C)C(=O)N(C)[C@@H](Cc2ccccc2)C(=O)N(C)[C@@H](C(C)C)C(=O)N[C@H](C(=O)N2CCCCC2)CC(=O)N[C@H](C(C)C)C(=O)N(C)[C@@H](CC(C)C)C(=O)N[C@@H](COc2ccccc2Cl)C(=O)N(C)[C@@H](C)C(=O)N[C@@H]([C@@H](C)O)C(=O)N(C)CC(=O)N1C` [pd339], for which the Papp A→B at 180 min is 2.6 ×10⁻⁶ cm/s.

For `CC(C)C[C@H]1C(=O)N[C@@H](COC(C)(C)C)C(=O)N(C)[C@@H](C)C(=O)N(C)[C@@H](CC(C)C)C(=O)N[C@H](C(=O)N2CCCCC2)CC(=O)N[C@H](C)C(=O)N(C)[C@@H](Cc2ccccc2)C(=O)N[C@@H](COc2ccccc2Cl)C(=O)N(C)[C@@H](CC(C)C)C(=O)N[C@@H]([C@@H](C)O)C(=O)N(C)CC(=O)N1C` [pd340], the Papp A→B at 180 min turned out to be 1.2 ×10⁻⁶ cm/s.

`CC[C@H](C)[C@H]1C(=O)N[C@@H]([C@@H](C)O)C(=O)N(C)CC(=O)N(C)[C@@H](CC(C)C)C(=O)N[C@H](C(=O)N2CCCCC2)CC(=O)N(C)[C@@H](C)C(=O)N[C@@H](CC(C)C)C(=O)N(C)[C@@H](CC(C)C)C(=O)N(C)[C@@H](C)C(=O)N[C@@H](COc2ccccc2Cl)C(=O)N(C)[C@@H](Cc2ccccc2)C(=O)N1C` [pd341] came in with a Papp A→B at 180 min of 1.4 ×10⁻⁶ cm/s.

`CC(C)C[C@H]1C(=O)N[C@@H](COC(C)(C)C)C(=O)N(C)[C@@H](Cc2ccccc2)C(=O)N(C)[C@@H](C(C)C)C(=O)N[C@H](C(=O)N2CCCCC2)CC(=O)N[C@H](C(C)C)C(=O)N(C)[C@@H](Cc2ccccc2)C(=O)N[C@@H](COc2cccc(Cl)c2)C(=O)N(C)[C@@H](C)C(=O)N[C@@H]([C@@H](C)O)C(=O)N(C)CC(=O)N1C` [pd342] showed a Papp A→B at 180 min of 1.9 ×10⁻⁶ cm/s.

In turn, `CC(C)C[C@H]1C(=O)N[C@@H](COC(C)(C)C)C(=O)N(C)[C@@H](Cc2ccccc2)C(=O)N(C)[C@@H](C(C)C)C(=O)N[C@H](C(=O)N2CCCCC2)CC(=O)N[C@H](C)C(=O)N(C)[C@@H](Cc2ccccc2)C(=O)NC(COc2cccc(Cl)c2)C(=O)N(C)[C@@H](C(C)C)C(=O)N[C@@H]([C@@H](C)O)C(=O)N(C)CC(=O)N1C` (stereo partly drawn) [pd343] yielded a Papp A→B at 180 min of 2.2 ×10⁻⁶ cm/s.

As for `CC[C@H](C)[C@H]1C(=O)N[C@@H]([C@@H](C)O)C(=O)N(C)CC(=O)N(C)[C@@H](CC(C)C)C(=O)N[C@H](C(=O)N2CCCCC2)CC(=O)N(C)[C@@H](C)C(=O)NC(COc2cccc(Cl)c2)C(=O)N(C)[C@@H](CC(C)C)C(=O)N(C)[C@@H](Cc2ccccc2)C(=O)N[C@@H](C)C(=O)N(C)[C@@H](Cc2ccccc2)C(=O)N1C` (stereo partly drawn) [pd344], the Papp A→B at 180 min stood at 1.3 ×10⁻⁶ cm/s.

On to `CC[C@H](C)[C@H]1C(=O)N[C@@H]([C@@H](C)O)C(=O)N(C)CC(=O)N(C)[C@@H](C)C(=O)N[C@H](C(=O)N2CCCCC2)CC(=O)N(C)[C@@H](C)C(=O)N[C@@H](C(C)C)C(=O)N(C)[C@@H](CC(C)C)C(=O)N(C)[C@@H](Cc2ccccc2)C(=O)NC(COc2cccc(Cl)c2)C(=O)N(C)[C@@H](Cc2ccccc2)C(=O)N1C` (stereo partly drawn) [pd345], for which the Papp A→B at 180 min came to 1.8 ×10⁻⁶ cm/s.

`CC(C)C[C@H]1C(=O)N[C@@H](COC(C)(C)C)C(=O)N(C)[C@@H](Cc2ccccc2)C(=O)N(C)[C@@H](C(C)C)C(=O)N[C@H](C(=O)N2CCCCC2)CC(=O)N[C@H](C(C)C)C(=O)N(C)[C@@H](Cc2ccccc2)C(=O)N[C@@H](COCc2cncc(F)c2)C(=O)N(C)[C@@H](CC(C)C)C(=O)N[C@@H]([C@@H](C)O)C(=O)N(C)CC(=O)N1C` [pd346] ([dV][NMeF]S(X2)[NMeL]T[Sar][NMeL]S(tBu)[NMeF][NMeV]D-Piperidide; lactam N-11) came in with a Papp A→B at 180 min of 2.4 ×10⁻⁶ cm/s.

Molecule `CCCN1CC(=O)N(C)[C@@H](Cc2ccccc2)C(=O)N[C@@H](COCC(F)(F)C(F)F)C(=O)N(C)[C@@H](CC(C)C)C(=O)N[C@@H]([C@@H](C)O)C(=O)N(C)CC(=O)N(C)[C@@H](Cc2ccccc2)C(=O)N(C)[C@@H](CC(C)C)C(=O)N[C@@H](COC(C)(C)C)C(=O)N(C)[C@@H](CC(C)C)C(=O)N[C@H](C(=O)N2CCCCC2)CC1=O` [pd349] ([NPrGly][NMeF]S(X11)[NMeL]T[Sar][NMeF][NMeL]S(tBu)[NMeL]D-Piperidide; lactam N-11) gave a Papp A→B at 180 min of 1.8 ×10⁻⁶ cm/s.

For the molecule `CC(C)C[C@H]1C(=O)N[C@@H](COC(C)(C)C)C(=O)N(C)[C@@H](Cc2ccccc2)C(=O)N(C)[C@@H](C(C)C)C(=O)N[C@H](C(=O)N2CCCCC2)CC(=O)N[C@H](C(C)C)C(=O)N(C)[C@@H](C)C(=O)N[C@@H](CCc2ccccc2Cl)C(=O)N(C)[C@@H](CC(C)C)C(=O)N[C@@H]([C@@H](C)O)C(=O)N(C)CC(=O)N1C` [pd350] ([dV][NMeA][X14][NMeL]T[Sar][NMeL]S(tBu)[NMeF][NMeV]D-Piperidide; lactam N-11), the Papp A→B at 180 min was determined as 1.7 ×10⁻⁶ cm/s.

In turn, `CC(C)C[C@@H]1NC(=O)[C@H](CC(C)C)N(C)C(=O)CN(C)C(=O)[C@H]([C@@H](C)O)NC(=O)[C@H](CC(C)C)N(C)C(=O)[C@H](CCc2ccccc2Cl)NC(=O)[C@H](C)N(C)C(=O)[C@@H](C(C)C)NC(=O)C[C@@H](C(=O)N2CCCCC2)NC(=O)[C@H](C(C)C)N(C)C(=O)[C@H](Cc2ccccc2)N(C)C1=O` [pd351] ([dV][NMeA][X14][NMeL]T[Sar][NMeL]L[NMeF][NMeV]D-Piperidide; lactam N-11) displayed a Papp A→B at 180 min of 1.9 ×10⁻⁶ cm/s.

These data come from patent publication US20200131669A1, “CYCLIC PEPTIDE COMPOUND HAVING HIGH MEMBRANE PERMEABILITY, AND LIBRARY CONTAINING SAME” (Chugai Seiyaku Kabushiki Kaisha, priority 2017, published 2020).
